In patent publication US20240374606A1, “SUBSTITUTED PYRAZINE-2-CARBOXAMIDES AS HPK1 INHIBITORS FOR THE TREATMENT OF CANCER” (ASTRAZENECA AB, priority 2021, published 2024):
Structures can show the parent of a compound that is named as a salt.

Tests used:
Format in all cases: cell-based
human CD3+ T cells = assay: T cell assay (IL2 in supernatant, anti-CD3/anti-CD28 stimulation); settings: for EC50: T-cell, 4 hours anti-CD3/anti-CD28, read-out: IL-2 EC50
Method: Cryo-preserved human CD3+ T cells are recovered in warm T cell media overnight. […] T cells are then left in a humidified incubator at 37° C. for 1 hour. […] Anti-CD28 antibody in T cell media is also added to the cells by Bravo liquid handler at 5 ug/mL or 1 μg/mL in a donor dependent manner. T cells are then incubated in a humidified incubator at 37° C. for 4 hours. […] IL2 is detected using a IL2 MultiCyt® QBeads® kit on an iQue Screener flow cytometer (Sartorius). Briefly, capture beads are diluted by 50× in the supplied capture bead diluent. […] Using a Bravo liquid handler, 10 ul cell culture supernatant is transferred to the v-bottom plate with diluted capture beads. The plate is then sealed in foil and incubate at room temperature on a plate shaker set to 900 rpm for 1 hour. At the end of incubation, 10 μL per well of the supplied detection reagent is added to the wells using a ThermoFisher multichannel pipette. The plate is then sealed in foil and incubate again at room temperature on a plate shaker set to 900 rpm for 2 hours before detection by iQue Screener. iQue Screener flow cytometer uses pre-configured analysis template supplied with the IL2 MultiCyt® QBeads® kit to detect IL2 in each sample wells.

pSLP76 [1] = assay: Flow pSLP76
pSLP76 [2] = assay: WB pSLP76

| Compound | EC50 (human CD3+ T cells) [nM] | EC50 (pSLP76 [1]) [nM] | EC50 (pSLP76 [2]) [nM] | Max IL-2 conc (human CD3+ T cells) [µM] |
| --- | --- | --- | --- | --- |
| CNc1nc(Nc2cn(C3CCN(C)CC3)nc2C)c(C(N)=O)nc1-c1cccc2c1ncn2C [Example 206, 5-(Methylamino)-6-(1-methylbenzimidazol-4-yl)-3-[[3-methyl-1-(1-methyl-4-piperidyl)pyrazol-4-yl]amino]pyrazine-2-carboxamide formate salt] | 91 | 440 | 320 | 1.11 |
| CNc1nc(Nc2cn(C(C)(C)C#N)nc2C)c(C(N)=O)nc1-c1cncc2c1ncn2C [Example 211, 3-[[1-(1-Cyano-1-methyl-ethyl)-3-methyl-pyrazol-4-yl]amino]-5-(methylamino)-6-(3-methylimidazo[4,5-c]pyridin-7-yl)pyrazine-2-carboxamide] | 276 | – | 340 | 3.33 |
| Cc1nn(CC(F)(F)F)cc1Nc1nc(C2CC2)c(-c2cncc3c2ncn3C)nc1C(N)=O [Example 213, 5-Cyclopropyl-6-(3-methylimidazo[4,5-c]pyridin-7-yl)-3-[[3-methyl-1-(2,2,2-trifluoroethyl)pyrazol-4-yl]amino]pyrazine-2-carboxamide] | 53 | 50 | – | – |

More lines, main results first:

| EC50 (human CD3+ T cells) [nM] | EC50 (pSLP76 [1]) [nM] | EC50 (pSLP76 [2]) [nM] | Compound | Max IL-2 conc (human CD3+ T cells) [µM] |
| --- | --- | --- | --- | --- |
| 23 | 65 | – | CNc1nc(Nc2ccc(CN3C[C@H]4C[C@@H]3CO4)cc2F)c(C(N)=O)nc1-c1cncc2c1ncn2C [Example 146, 3-[2-Fluoro-4-[[(1R,4R)-2-oxa-5-azabicyclo[2.2.1]heptan-5-yl]methyl]anilino]-5-(methylamino)-6-(3-methylimidazo[4,5-c]pyridin-7-yl)pyrazine-2-carboxamide] | 0.37 |
| 325 | 1080 | – | CNc1nc(Nc2ccc(CN3CC4(COC4)C3)cc2Cl)c(C(N)=O)nc1-c1cncc2c1ncn2C [Example 148, 3-[2-Chloro-4-(2-oxa-6-azaspiro[3.3]heptan-6-ylmethyl)anilino]-5-(methylamino)-6-(3-methylimidazo[4,5-c]pyridin-7-yl)pyrazine-2-carboxamide formate salt] | 3.33 |
| 120 | – | – | Cc1nn(C2COC2)cc1Nc1nc(C2CC2)c(-c2cncc3c2ncn3C)nc1C(N)=O [Example 224, 5-Cyclopropyl-6-(3-methylimidazo[4,5-c]pyridin-7-yl)-3-[[3-methyl-1-(oxetan-3-yl)pyrazol-4-yl]amino]pyrazine-2-carboxamide] | 3.33 |
